Publication PMC4446597, “Novel Adociaquinone Derivatives from the Indonesian Sponge Xestospongia sp” (Marine Drugs, 2015)
Where a name gives a salt, the structure may show the parent alone. One block for each compound: values may come before it.

Assays:
[1] = biological target: human farnesyltransferase; set-up: method as in PMID 20634081; conditions: read-out: IC50 against human farnesyltransferase; cited from earlier work
[2] = biological target: yeast farnesyltransferase; set-up: method as in PMID 20634081; conditions: read-out: IC50 against yeast farnesyltransferase; cited from earlier work
topoisomerase II = test system: topoisomerase II; set-up: method as in PMID 7473578; conditions: catalytic DNA unwinding and decatenation assays, KSDS assay; cited from earlier work
CDK1/cyclin B = assay: Protein kinase assay, CDK1/cyclin B; type: biochemical; conditions: 15 µM ATP, 30 °C, triplicates
Description: (§1) Evaluation of the protein kinase inhibitory activity was performed in vitro as previously described. Briefly, homogenization buffer: 60 mM β-glycerophosphate, 15 mM p-nitrophenylphosphate, 25 mM Mops (pH 7.2), 15 mM EGTA, 15 mM MgCl2, 1 mM dithiothreitol, 1 mM sodium vanadate, 1 mM NaF, 1 mM phenylphosphate, 10 µg leupeptin mL^−1, 10 µg aprotinin mL^−1, 10 µg soybean trypsin inhibitor mL^−1, and 100 µg benzamidine. Buffer A: 10 mM MgCl2, 1 mM EGTA, 1 mM dithiothreitol, 25 mM Tris-HCl pH 7.5, 50 µg heparin mL^−1. Buffer C: homogenization buffer but 5 mM EGTA, no NaF and no protease inhibitors. Kinase activities were assayed in triplicates in buffer A or C at 30 °C, at a final ATP concentration of 15 µM. The order of mixing the reagents was: buffers, substrate, enzyme, inhibitor and ^33P-radiolabelled ATP. Isolated compounds were tested against a panel of eight kinases; namely cyclin-dependent kinase 1 (CDK1/cyclin B), cyclin-dependent kinase 2 (CDK2/cyclin A), cyclin-dependent kinase 5 (CDK5/p25), cyclin-dependent kinase 9 (CDK9/cyclin T), casein kinase 1 (CK1), Cdc2-like kinase 1 (CLK1), dual-specificity tyrosine-(Y)-phosphorylation regulated kinase 1A (DYRK1A) and glycogen synthase kinase-3α/β (GSK-3α/β).

CDK2/cyclin A = CDK2/cyclin A (Homo sapiens, UniProt P24941); assay: Protein kinase assay, CDK2/cyclin A; type: biochemical; conditions: 15 µM ATP, 30 °C, triplicates
Description: as §1

CDK5/p25 = CDK5/p25 (Homo sapiens, UniProt Q00535); assay: Protein kinase assay, CDK5/p25; type: biochemical; conditions: 15 µM ATP, 30 °C, triplicates
Chain of CDK5/p25 (Q00535 whole entry, species assumed): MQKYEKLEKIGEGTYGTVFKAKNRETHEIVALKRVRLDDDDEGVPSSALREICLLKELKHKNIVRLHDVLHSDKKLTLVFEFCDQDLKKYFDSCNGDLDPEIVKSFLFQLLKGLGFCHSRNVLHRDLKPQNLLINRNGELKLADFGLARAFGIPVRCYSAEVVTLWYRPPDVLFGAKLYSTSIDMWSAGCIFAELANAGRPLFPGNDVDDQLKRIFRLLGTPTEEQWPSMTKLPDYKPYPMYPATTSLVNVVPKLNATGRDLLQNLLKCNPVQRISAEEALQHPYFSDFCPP
Chain of CDK5/p25 (Q15078 99-307 partner limits assumed, species assumed): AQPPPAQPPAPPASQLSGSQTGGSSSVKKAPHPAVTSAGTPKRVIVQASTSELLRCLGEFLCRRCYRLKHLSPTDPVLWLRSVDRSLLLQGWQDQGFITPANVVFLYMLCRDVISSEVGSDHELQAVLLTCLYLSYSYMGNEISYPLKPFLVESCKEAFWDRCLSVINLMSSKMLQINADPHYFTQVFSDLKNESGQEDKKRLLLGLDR
Description: as §1

CDK9/cyclin T = CDK9/cyclin T (Homo sapiens, UniProt P50750); assay: Protein kinase assay, CDK9/cyclin T; type: biochemical; conditions: 15 µM ATP, 30 °C, triplicates
Chain of CDK9/cyclin T (P50750 whole entry, species assumed): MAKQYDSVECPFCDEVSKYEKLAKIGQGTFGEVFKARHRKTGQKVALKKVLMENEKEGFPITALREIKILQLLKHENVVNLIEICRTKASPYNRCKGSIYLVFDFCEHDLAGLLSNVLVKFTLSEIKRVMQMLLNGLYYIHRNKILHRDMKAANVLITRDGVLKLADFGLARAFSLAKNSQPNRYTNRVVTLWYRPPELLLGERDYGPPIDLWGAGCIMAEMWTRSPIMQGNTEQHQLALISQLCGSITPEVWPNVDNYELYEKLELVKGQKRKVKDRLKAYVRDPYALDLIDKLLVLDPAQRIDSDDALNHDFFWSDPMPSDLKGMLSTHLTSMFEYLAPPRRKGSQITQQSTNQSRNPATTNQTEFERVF
Chain of CDK9/cyclin T (O60563 whole entry partner, species assumed): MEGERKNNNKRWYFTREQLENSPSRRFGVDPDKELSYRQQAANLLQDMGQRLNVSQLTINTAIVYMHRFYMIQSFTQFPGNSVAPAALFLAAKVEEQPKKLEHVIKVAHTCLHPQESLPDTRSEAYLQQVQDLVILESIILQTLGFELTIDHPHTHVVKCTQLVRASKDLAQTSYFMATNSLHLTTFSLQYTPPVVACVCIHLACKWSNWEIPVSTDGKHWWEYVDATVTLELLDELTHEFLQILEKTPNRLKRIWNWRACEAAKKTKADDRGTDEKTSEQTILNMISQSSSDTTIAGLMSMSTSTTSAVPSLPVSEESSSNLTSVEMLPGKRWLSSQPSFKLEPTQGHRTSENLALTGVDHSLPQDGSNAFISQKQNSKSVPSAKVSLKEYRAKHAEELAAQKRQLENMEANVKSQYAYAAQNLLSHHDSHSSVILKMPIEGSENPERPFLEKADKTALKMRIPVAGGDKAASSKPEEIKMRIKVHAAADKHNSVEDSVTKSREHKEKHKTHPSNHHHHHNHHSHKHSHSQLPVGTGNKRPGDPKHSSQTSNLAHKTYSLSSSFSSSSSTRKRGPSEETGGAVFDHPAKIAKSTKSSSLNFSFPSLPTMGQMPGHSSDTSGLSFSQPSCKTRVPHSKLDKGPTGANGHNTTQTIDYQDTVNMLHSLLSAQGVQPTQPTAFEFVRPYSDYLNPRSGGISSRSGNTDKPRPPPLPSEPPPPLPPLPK
Description: as §1

casein kinase 1 (CK1) = assay: Protein kinase assay, casein kinase 1; type: biochemical; conditions: 15 µM ATP, 30 °C, triplicates
Description: as §1

[3] = biological target: glycogen synthase kinase-3α/β (GSK-3α/β); assay: Protein kinase assay, GSK-3α/β; type: biochemical; conditions: 15 µM ATP, 30 °C, triplicates, read-out: GSK3 IC50
Description: as §1

[4] = test system: Staphylococcus aureus ATCC 6538; assay: Antibacterial assay, growth inhibition in liquid culture; type: cell-based; conditions: ATCC6538, S. aureus ATCC 6538, OD 620 nm after 16 to 18 h, read-out: antibacterial activity IC50 against Staphylococcus aureus
Description: The antibacterial activity assay was conducted on the bacterial strain Gram-positive Staphylococcus aureus ATCC 6538 and Gram-negative Escherichia coli ATCC 8739 evaluated in vitro by determining the IC50. A pre-culture of 5 mL LB (Luria Bertoni) medium was prepared by inoculating a colony of the bacterial strain and was incubated at 37 °C with stirring overnight. The concentration of the pre-culture was assessed by measuring the optical density OD at 620 nm and adjusted by dilution to obtain a suspension of 0.03 OD. The […] was determined by a liquid test in 96-well-plates. A quantity of 200 µL of the bacterial suspension was distributed in each well and 10 µL of the extracts, fractions or pure compounds solutions in DMSO (10, 5 and 2 mg/mL, respectively) were added in triplicate. The 96 well-plates were incubated at 30 °C for 16 to 18 h with shaking (450 rpm). The optical density of the wells was measured at 620 nm and the results were interpreted by calculating the percentage of growth inhibition in each well using the formula: % inhibition = 100 − (DOS − DOB)/(DOT − DOB) ×100 where T = bacterial suspension without test sample, B = culture medium without bacteria and S = bacterial suspension test sample. Ampicillin and chloramphenicol were used as positive control against S. aureus and E. coli, respectively.

DYRK1A = DYRK1A (Rattus norvegicus, UniProt Q63470); assay: Protein kinase assay, DYRK1A; type: biochemical
Description: as §1

Compound: CC1=CCCC2(C)C1=C(O)C(=O)c1cc3c(cc12)C(=O)C=CC3=O (stereo not drawn) [Orhalquinone]
IC50 [1]: 0.4 µM
IC50 [2]: 0.4 µM

Compound: adociaquinone A [Compound 5]
inhibition of topoisomerase II (in words) (topoisomerase II): inhibition of topoisomerase II

Compound: C[C@@]12CCC(=O)c3coc(c31)C(=O)c1cc3c(O)ccc(OS(=O)(=O)O)c3cc12 [Compound 12]
IC50 (CDK1/cyclin B): 4.3 µM
IC50 (CDK2/cyclin A): 7.5 µM
IC50 (CDK5/p25): 2.2 µM
IC50 (CDK9/cyclin T): 0.5 µM
IC50 (casein kinase 1 (CK1)): 5.2 µM
IC50 [3]: 0.61 µM

IC50 [4]: 125 µM
Compound: C[C@@]12CCCc3coc(c31)C(=O)c1cc3c(O)ccc(OS(=O)(=O)O)c3cc12 [Compound 11, xestoquinol sulfate]

Compound: CO[C@]12OC(O)C3=C1[C@@](C)(CCC3=O)c1cc3c(OS(=O)(=O)O)ccc(O)c3cc1C2=O (stereo partly drawn) [Compound 13]
IC50 (CDK1/cyclin B): > 10 µM
IC50 (CDK2/cyclin A): > 10 µM
IC50 (CDK5/p25): > 10 µM
IC50 (CDK9/cyclin T): > 10 µM
IC50 (casein kinase 1 (CK1)): > 10 µM
activity against DYRK1A (in words) (DYRK1A): marginal activity
IC50 [3]: > 10 µM

Compound: C[C@@]12CCCc3coc(c31)C(=O)c1cc3c(cc12)C(=O)C=C(NCCS(=O)(=O)O)C3=O [Compound 8, secoadociaquinone B]
IC50 (CDK1/cyclin B): > 10 µM
IC50 (CDK2/cyclin A): > 10 µM
IC50 (CDK5/p25): 6 µM
IC50 (CDK9/cyclin T): > 10 µM
IC50 (casein kinase 1 (CK1)): > 10 µM
IC50 [3]: > 10 µM

Compound: C[C@@]12CCCc3coc(c31)C(=O)c1cc3c(cc12)C(=O)C1=C(NCCS1(=O)=O)C3=O [Compound 6, adociaquinone B]
IC50 (CDK1/cyclin B): > 10 µM
IC50 (CDK2/cyclin A): > 10 µM
IC50 (CDK5/p25): > 10 µM
IC50 (CDK9/cyclin T): 3 µM
IC50 (casein kinase 1 (CK1)): > 10 µM
IC50 [3]: > 10 µM
inhibition of topoisomerase II (in words) (topoisomerase II): inhibition of topoisomerase II
